Data reported in ChEMBL document CHEMBL1134904, “The activity of p-methoxybenzylisothiocyanate against Neisseria gonorrhoeae, Haemophilus ducreyi, and other microorganisms” (Bioorg Med Chem Lett, 2002).
≈ marks a conversion by molar mass, not a printed value.

How the values were obtained:
Neisseria gonorrhoeae [1] = assay: The compound was tested for minimal inhibitory concentration against Neisseria gonorrhoeae; format: functional
[2] = In vitro cellular toxicity was determined at a concentration of 100 uM in Graham cell lines; found to be non toxic at the above concentration; format: cell-based
Neisseria gonorrhoeae [3] = assay: The compound was tested for minimal inhibitory concentration against Penicillinase producing Neisseria gonorrhoeae (PPNG); format: functional
Candida albicans = assay: The compound was tested for minimal inhibitory concentration against Candida albicans; format: functional
Pseudomonas aeruginosa [4] = assay: The compound was tested for minimal inhibitory concentration against Pseudomonas aeruginosa; format: functional
Staphylococcus aureus [5] = assay: The compound was tested for minimal inhibitory concentration against Resistant Staphylococcus aureus; format: functional
Enterobacter sp. = assay: The compound was tested for minimal inhibitory concentration against Enterobacter sp.; format: functional
Pseudomonas aeruginosa [6] = assay: The compound was tested for minimal inhibitory concentration against Resistant Pseudomonas aeruginosa; format: functional
Micrococcus luteus = assay: The compound was tested for minimal inhibitory concentration against Micrococcus luteus; format: functional
Escherichia coli = assay: The compound was tested for minimal inhibitory concentration against Escherichia coli; format: functional
Staphylococcus aureus [7] = assay: The compound was tested for minimal inhibitory concentration against Staphylococcus aureus; format: functional
[Haemophilus] ducreyi = The compound was tested for minimal inhibitory concentration against Haemophilus ducreyi; format: functional
Bacillus subtilis = assay: The compound was tested for minimal inhibitory concentration against Bacillus subtilis; format: functional

SMILES	MIC (Neisseria gonorrhoeae [1]) [µg/mL]	Toxicity [2]	MIC (Neisseria gonorrhoeae [3]) [µg/mL]	MIC (Candida albicans) [µg/mL]	MIC (Pseudomonas aeruginosa [4]) [µg/mL]	MIC (Staphylococcus aureus [5]) [µg/mL]	MIC (Enterobacter sp.) [µg/mL]	MIC (Pseudomonas aeruginosa [6]) [µg/mL]	MIC (Micrococcus luteus) [µg/mL]	MIC (Escherichia coli) [µg/mL]	MIC (Staphylococcus aureus [7]) [µg/mL]	MIC ([Haemophilus] ducreyi) [µg/mL]	MIC (Bacillus subtilis) [µg/mL]
COc1ccc(CN=C=S)cc1	4 (≈ 22.3 µM)	Not toxic	4 (≈ 22.3 µM)	2 (≈ 11.2 µM)	16 (≈ 89.3 µM)	8 (≈ 44.6 µM)	8 (≈ 44.6 µM)	16 (≈ 89.3 µM)	8 (≈ 44.6 µM)	32 (≈ 179 µM)	2 (≈ 11.2 µM)	64 (≈ 357 µM)	32 (≈ 179 µM)
C[C@@H]1[C@H](O)[C@@H](C)/C=C/C=C/C=C/C=C/C=C/C=C/C=C/[C@H](O[C@@H]2O[C@H](C)[C@@H](O)[C@H](N)[C@@H]2O)C[C@@H]2O[C@](O)(C[C@@H](O)C[C@@H](O)[C@H](O)CC[C@@H](O)C[C@@H](O)CC(=O)O[C@H]1C)C[C@H](O)[C@H]2C(=O)O (relative stereo) [AMPHOTERICIN B]				2 (≈ 2.16 µM)									
CC1(C)S[C@@H]2[C@H](NC(=O)[C@H](N)c3ccccc3)C(=O)N2[C@H]1C(=O)O [AMPICILLIN]	0.25 (≈ 0.715 µM)		> 32		> 32	> 32	16 (≈ 45.8 µM)		2 (≈ 5.72 µM)	8 (≈ 22.9 µM)	2 (≈ 5.72 µM)	2 (≈ 5.72 µM)	> 32
O=C(O)c1cn(C2CC2)c2cc(N3CCNCC3)c(F)cc2c1=O [CIPROFLOXACIN]	0.25 (≈ 0.754 µM)		0.25 (≈ 0.754 µM)			> 32	2 (≈ 6.04 µM)	> 32	2 (≈ 6.04 µM)		2 (≈ 6.04 µM)		2 (≈ 6.04 µM)
C[C@H]1c2cccc(O)c2C(=O)C2=C(O)[C@]3(O)C(=O)C(C(N)=O)=C(O)[C@@H](N(C)C)[C@@H]3[C@@H](O)[C@@H]21.O [DOXYCYCLINE]	0.5		> 32		8	> 32	8	> 32	8	2	8	4	8
OC(Cn1cncn1)(Cn1cncn1)c1ccc(F)cc1F [FLUCONAZOLE]				0.25 (≈ 0.816 µM)									
